{"source": "patent US20160030443A1", "about": "“METHODS AND COMPOSITIONS FOR MODULATING REGULATORY T CELL FUNCTION” (priority 2013, published 2016)", "data": [{"system": "human Treg cells", "assay": "Functional screening assay: naïve CD4+ T cell proliferation ([3H]thymidine) with Treg cells and small molecule compounds", "type": "cell-based", "details": "compound 1 μM; [3H]thymidine incorporation; marked effect = CPM>60K, 50% restoration", "method": "These small molecule compounds contain a quinolone structure. Those with a marked effect on the proliferation of CD4^+ naïve T cells (CPM>60K, 50% restoration compared to naïve T cells alone) are considered excellent candidates for further drug development. Naïve T cells alone or CD4^+ naïve cells plus Treg cells, without any compound serve as controls. […]\nSpecifically, a functional screening assay was carried out using soluable anti-CD3 antibody plus antigen-presenting cells (APCs). Naïve CD4^+T cells were purified from PBMCs using microbeads (Miltenvi Biotec). DCs were generated from PBMC-derived monocytes in the presence of IL-4 (500 ng/ml) and GM-CSF (800 ng/ml) for 7 days. 1×10^5 naïve CD4^+ T cells were cultured with regulatory T cells at different ratios of 1:0.2, 1:0.1 and 1:0.05 in 200 μl of medium containing 2×10^4 of DCs and anti-CD3 antibody (100 ng/ml) in the absence or presence of various small molecule compounds (1 μM). □ After 56 hours of culture, [^3H]thymidine was added at a final concentration of 1 μCi/well, followed by an additional 16 h. of culture. The incorporation of [^3H]thymidine was measured with a liquid scintillation counter. All experiments were performed in triplicate. In addition, a screening assay was performed usinge anti-CD3 antibody coated without APCs: 1×10^5 naïve CD4 T cells were cultured with regulatory T cells at different ratios of 1:0.2, 1:0.1 and 1:0.05 in anti-CD3 mAb-coated (2 μg/ml) 96-well plates in the absence or presence of various small molecule compounds (1 μM) □. After 56 h of culture, [^3H]thymidine was added at a final concentration of 1 μCi/well, followed by an additional 16 h of culture. The incorporation of [^3H]thymidine was measured with a liquid scintillation counter.", "values": [{"smiles": "CCCCCn1cc(C(=O)O)c(=O)c2cc(F)c(F)cc21", "note": "[#8, 6,7-difluoro-4-oxo-1-pentylquinoline-3-carboxylic acid]", "Reversal of the suppressive function of Treg cells (restoration of naïve CD4+ T cell proliferation)": "ST008097 #8 No activity"}, {"smiles": "CCn1cc(C(=O)O)c(=O)c2cc(F)c(NN3C(=O)/C(=C\\c4ccccc4)N=C3c3ccccc3)cc21", "note": "[#9, F[…] 5- MALEIMIDE]", "Reversal of the suppressive function of Treg cells (restoration of naïve CD4+ T cell proliferation)": "ST023837 #9 No activity"}, {"smiles": "O=C(O)c1c[nH]c2ccccc2c1=O", "note": "[#10, 4-oxo-1H-quinoline-3-carboxylic acid]", "Reversal of the suppressive function of Treg cells (restoration of naïve CD4+ T cell proliferation)": "ST020639 #10 No activity"}, {"smiles": "CCn1cc(C(=O)O)c(=O)c2cc(F)c(NN3C(=O)CSC3c3ccccc3Cl)cc21", "note": "(stereo not shown) [#11, {[2-(2-chlorophenyl)-4-oxo(1,3-thiazolidin-3-yl)]amino}-1-ethyl-6-fluoro-4-o xohydroquinoline-3-carboxylic acid]", "Reversal of the suppressive function of Treg cells (restoration of naïve CD4+ T cell proliferation)": "ST048777 #11 No activity"}, {"smiles": "CCn1cc(C(=O)O)c(=O)c2cc(F)c(NN3C(=O)C(Cl)C3c3ccc(OC)cc3)cc21", "note": "(stereo not shown) [#12, 7-{[3-Chloro-2-(4-methoxyphenyl)-4-oxo-1-azetidinyl]amino}-1-ethyl-6-fluoro-4-oxo-1,4-dihydro-3-quinolinecarboxylic acid]", "Reversal of the suppressive function of Treg cells (restoration of naïve CD4+ T cell proliferation)": "ST026709 #12 No activity"}, {"smiles": "CCOC(=O)c1cn(-c2ccc(F)cc2F)c2nc(Cl)c(F)cc2c1=O", "note": "[#14, ethyl 7-chloro-1-(2,4-difluorophenyl)-6-fluoro-4-oxo-1,8-naphthyridine-3-carboxylate]", "Reversal of the suppressive function of Treg cells (restoration of naïve CD4+ T cell proliferation)": "ST067113 #14 No activity"}, {"smiles": "Fc1ccccc1N1CCNCC1", "note": "[#15, 1-(2-Fluorophenyl)piperazine]", "Reversal of the suppressive function of Treg cells (restoration of naïve CD4+ T cell proliferation)": "TRE0004030 #15 No activity"}, {"smiles": "Fc1ccc(N2CCNCC2)c(F)c1", "note": "[#16, 1-(2,4-Difluorophenyl)piperazine]", "Reversal of the suppressive function of Treg cells (restoration of naïve CD4+ T cell proliferation)": "TRE0005495 #16 No activity"}, {"smiles": "Fc1ccccc1N1CCNCC1", "note": "[#17, 1-(2-Fluorophenyl)piperazine]", "Reversal of the suppressive function of Treg cells (restoration of naïve CD4+ T cell proliferation)": "TRE0005772 #17 No activity"}, {"smiles": "CCOC(=O)c1c[nH]c2c(F)c(F)c(F)cc2c1=O", "note": "[#18, Ethyl 6,7,8-trifluoro-1,4-dihydro-4-oxo-3-quinilinecarboxylate]", "Reversal of the suppressive function of Treg cells (restoration of naïve CD4+ T cell proliferation)": "TRE0006666 #18 No activity"}, {"smiles": "CCn1cc(C(=O)O)c(=O)c2cc(F)c(Cl)cc21", "note": "[#19, 7-Chloro-1-ethyl-6-fluoro-4-oxo-1,4-dihydro-3-quinolinecarboxylic acid]", "Reversal of the suppressive function of Treg cells (restoration of naïve CD4+ T cell proliferation)": "TRE0007211 #19 No activity"}, {"smiles": "CC1COc2c(F)c(F)cc3c(=O)c(C(=O)O)cn1c23", "note": "(stereo not shown) [#20, 9,10-Difluoro-3-methyl-7-oxo-2,3-dihydro-7H-[1,4]oxazino[2,3,4-ij]quinoline-6-carboxylic acid]", "Reversal of the suppressive function of Treg cells (restoration of naïve CD4+ T cell proliferation)": "TRE0008195 #20 No activity"}, {"smiles": "CC1CCc2cc(F)cc3c(=O)c(C(=O)O)cn1c23", "note": "(stereo not shown) [#21, 9-Fluoro-5-methyl-1-oxo-6,7-dihydro-1H,5H-pyrido[3,2,1-ij]quinoline-2-carboxylic acid, reference compound]", "Reversal of the suppressive function of Treg cells (restoration of naïve CD4+ T cell proliferation)": "TRE0065224 #21 No activity"}, {"smiles": "CCN1CCN(c2cc3c(cc2F)c(=O)c(C(=O)O)cn3C2CC2)CC1", "note": "[#26, 1-Cyclopropyl-7-(4-ethyl-1-piperazinyl)-6-fluoro-4-oxo-1,4-dihydro-3-quinolinecarboxylic acid, reference compound]", "Reversal of the suppressive function of Treg cells (restoration of naïve CD4+ T cell proliferation)": "TRE0076990 #26 No activity"}, {"smiles": "CCOC(=O)c1cn(CC)c2c(F)c(F)c(F)cc2c1=O", "note": "[#27, Ethyl 1-ethyl-6,7,8-trifluoro-1,4-dihydro-4-oxo-3-quinolinecarboxylate]", "Reversal of the suppressive function of Treg cells (restoration of naïve CD4+ T cell proliferation)": "TRE0080754 #27 No activity"}, {"smiles": "O=C(O)c1coc2ccc(F)cc2c1=O", "note": "[#28, 6-Fluoro-4-oxo-4H-chromene-3-carboxylic acid]", "Reversal of the suppressive function of Treg cells (restoration of naïve CD4+ T cell proliferation)": "TRE0080974 #28 No activity"}]}]}
